≈ marks a conversion by molar mass, not a printed value. Where two headings read alike, the source gives them in different places.
Key:
[1] = Open study, THC-CBD inhaled (pMDI) vs intravenous, plasma pharmacokinetics by GC/MS; type: in vivo, healthy volunteers; conditions: for time measurable in plasma after administration: 360 mcg i.h. and i.v. doses; for half-life: human, plasma, 720 ug, read-out: elimination half-lives; for half-life / mean i.h. bioavailability (calculated vs. i.v.) / time of plasma peak post-drug: 720 mcg
Description: In an open study on 12 healthy volunteers a combination of THC and cannabidiol (CBD) was compared after inhalation (i.h.) and intravenously (i.v.) (see Rudolf Brenneisen, Pascale Meyer, Manuela Langos, Christian Steup and Andrew Davies, IACM Congress 2007, 05.10.2007 Cologne).
The liquid aerosol was produced by an in-vitro validated pMDI device, releasing about 45% of the cannabinoid dose, enabling a dosage of about 90 mcg THC and 90 mcg CBD per actuation. The actuator was used from Bespak with an orifice diameter of 0.22mm.
Three subjects (pilot study) received 360 and 9 subjects 720 mcg THC-CBD, corresponding to 4 and 8 actuations, respectively. The addition of a Lidocain HCL to the pulmonal preparation was expected to prevent mucosa irritation and coughing. The pharmacokinetic evaluation was based on plasma profiles aquired by GC/MS. Adverse effects were monitored by visual analog scales (VAS) and measuring vital functions.

[2] = after inhalation of a THC aerosol, Pari Master; cited from earlier work
[3] = oral; cited from earlier work
[4] = Solubility of local anaesthetic in ethanol and HFA 227

| SMILES | time measurable in plasma after administration [1] | half-life ([1]; inhaled, i.h.) | half-life ([1]; iv, i.v.) | mean i.h. bioavailability (calculated vs. i.v.) ([1]; i.h.) | time of plasma peak post-drug ([1]; i.h.) | time of plasma peak post-drug ([1]; i.v.) | bioavailability [2] | main metabolite ([1]; after i.h.) | THC metabolism ([1]; after i.h., compared with oral (p.o.) administration) | bioavailability [3] | solubility ([4]; ethanol, organic solvent or mixture) | solubility ([4]; hfa 227, organic solvent or mixture) | Limit of solubility in Ethanol ([4]; in Ethanol) | Limit of solubility in HFA 227 ([4]; in HFA 227) |
| --- | --- | --- | --- | --- | --- | --- | --- | --- | --- | --- | --- | --- | --- | --- |
| C=C(C)[C@@H]1CCC(C)=C[C@H]1c1c(O)cc(CCCCC)cc1O [CBD, Cannabidiol] | ≤ 20 min | 11 min | 24 min | 59 ± 47% | 5 min | 5 min | – | – | – | – | – | – | – | – |
| CCCCCc1cc(O)c2c(c1)OC(C)(C)[C@@H]1CCC(C)=C[C@@H]21 [THC, delta-9-Tetrahydrocannabinol] | ≤ 20 min | 7 min | 22 min | 55 ± 37% | 5 min | 5 min | 29% | Conjugated 11-carboxy-THC | less pronounced than after oral | 5-20% | – | – | – | – |
| CCCCNc1ccc(C(=O)OCCN(C)C)cc1 [Tetracain, Tetracaine Base] | – | – | – | – | – | – | – | – | – | – | 450 mg/mL (≈ 1700 mM) | 40 mg/mL (≈ 151 mM) | 450 mg/mL | 40 mg/mL |

From patent EP2207528B1, “PHARMACEUTICAL COMPOSITION” (STI Pharmaceuticals Ltd., priority 2007, dated 2009)
